# Measurements from patent US9242975B2, “Heterocyclic-substituted pyridyl compounds useful as kinase inhibitors” (Bristol-Myers Squibb Company, priority 2012, dated 2016).
# Biological target: IRAK4 (Homo sapiens (Human), UniProt Q9NWZ3)
# Test: IRAK4 Inhibition Assay
# Type: biochemical
# Details: ATP 500 μM; FL-IPTSPITTTYFFFKKK peptide 1.5 μM; IRAK4 0.6 nM; 60 min at room temperature; Caliper LabChip 3000
# Protocol: The assays were performed in U-bottom 384-well plates. The final assay volume was 30 μL prepared from 15 μL additions of enzyme and substrates (fluoresceinated peptide and ATP) and test compounds in assay buffer (20 mM HEPES pH 7.2, 10 mM MgCl2, 0.015% Brij35 and 4 mM DTT). The reaction was initiated by the combination of IRAK4 with substrates and test compounds. The reaction was incubated at room temperature for 60 min. and terminated by adding 45 μL of 35 mM EDTA to each sample. The reaction mixture was analyzed on the Caliper LabChip 3000 (Caliper, Hopkinton, Mass.) by electrophoretic separation of the fluorescent substrate and phosphorylated product. Inhibition data were calculated by comparison to no enzyme control reactions for 100% inhibition and vehicle-only reactions for 0% inhibition. The final concentrations of reagents in the assays are ATP, 500 μM; FL-IPTSPITTTYFFFKKK peptide 1.5 μM; IRAK4, 0.6 nM; and DMSO, 1.6%.
# Chain of IRAK4 (Q9NWZ3 whole entry): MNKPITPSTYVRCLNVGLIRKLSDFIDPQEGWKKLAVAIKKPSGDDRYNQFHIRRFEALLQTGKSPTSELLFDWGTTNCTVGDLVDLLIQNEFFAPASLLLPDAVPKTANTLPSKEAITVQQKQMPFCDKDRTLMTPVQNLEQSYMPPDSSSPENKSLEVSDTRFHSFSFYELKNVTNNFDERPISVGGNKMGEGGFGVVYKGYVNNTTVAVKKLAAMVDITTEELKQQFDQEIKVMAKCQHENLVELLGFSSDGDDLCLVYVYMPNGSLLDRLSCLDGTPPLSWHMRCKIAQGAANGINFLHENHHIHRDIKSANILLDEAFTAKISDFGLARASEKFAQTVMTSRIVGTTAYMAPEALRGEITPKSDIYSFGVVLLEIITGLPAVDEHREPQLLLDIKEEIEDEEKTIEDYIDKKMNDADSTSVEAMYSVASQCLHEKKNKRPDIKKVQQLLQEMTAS
smiles,measurement,value
"CNC(=O)c1nc(-c2cnc(Nc3ccc4ncsc4c3)cc2NC(C)C)sc1C [Example 27, 2-(6-(benzo[d]thiazol-6-ylamino)-4-(isopropylamino)pyridin-3-yl)-N,5-dimethylthiazole-4-carboxamide]",IC50,1.8 nM
